Measurements reported in patent US20100035943A1, “Oxa-and thiadiazoles and their use as metalloproteinase inhibitors” (VERNALIS (OXFORD) LTD, priority 2002, published 2010).

Experiments:
[1] = tested on: IL2-induced lymphocyte recruitment; assay: IL2-induced peritoneal recruitment of lymphocytes; assay type: in vivo, C3H/HEN mice; details: mice, 15 min prior to IL2, cells counted 24 hours after IL2
Procedure: Administration of IL2 intraperitoneally causes migration of lymphocytes into the intraperitoneal cavity. This is a model for the cellular migration that occurs during inflammation.
C3H/HEN mice (Elevage Janvier, France) were intraperitoneally injected with IL2 (Serono Pharmaceutical Research Institute, 20 μg/kg, in saline). Compounds of the invention were suspended in 0.5% carboxymethylcellulose (CMC)/0.25% tween-20 and were administered by sc or po route (10 ml/kg) 15 min prior to administration of IL2.
Twenty-four hours after administration of IL2, peritoneal white blood cells were collected by 3 successive lavages of the peritoneal cavity with 5 ml phosphate buffered saline (PBS)-1 mM EDTA (+4° C.). The suspension was centrifuged (1700 g×10 min at +4° C.). The resulting pellet was suspended in 1 ml PBS-1 mM EDTA.
Lymphocytes were identified and counted using a Beckman/Coulter counter.
The animals were divided into 5 groups (6 mice each group):
Group 1: (baseline) received 0.5% CMC/0.25% tween-20 (vehicle of compound of the invention) and saline (vehicle of IL2); Group 2: (control IL2) received 0.5% CMC/0.25% tween-20 and injection of IL2; Group 3: Experimental group (Compound of the invention Dose 1) received a compound of the invention and injection of IL2; Group 4: Experimental group (Compound of the invention Dose 2) received a compound of the invention and injection of IL2; Group 5: Experimental group (Compound of the invention Dose 3) received a compound of the invention and injection of IL2; Group 6: Reference group received reference compound dexamethasone and injection of IL2
Inhibition of lymphocyte recruitment was calculated as follows:
Where Ly 1=Number of lymphocytes in group 1 (E3/μl), Ly 2=Number of lymphocytes in group 2 (E3/μl), Ly X=Number of lymphocytes in group X (3-5) (E3/μl)
The dose of compound of the invention required to inhibit lymphocyte recruitment by 50% (ID50) was calculated using a curve-fitting routine.

collagenase (MMP1) = molecular target: T1, collagenase (MMP1) (Homo sapiens, UniProt P03956); assay: MMP1 enzyme inhibition assay (fluorogenic peptide substrate McaPLGLDpaAR); assay type: biochemical; details: protocol as for MMP9 assay
T1 sequence (P03956 100-469): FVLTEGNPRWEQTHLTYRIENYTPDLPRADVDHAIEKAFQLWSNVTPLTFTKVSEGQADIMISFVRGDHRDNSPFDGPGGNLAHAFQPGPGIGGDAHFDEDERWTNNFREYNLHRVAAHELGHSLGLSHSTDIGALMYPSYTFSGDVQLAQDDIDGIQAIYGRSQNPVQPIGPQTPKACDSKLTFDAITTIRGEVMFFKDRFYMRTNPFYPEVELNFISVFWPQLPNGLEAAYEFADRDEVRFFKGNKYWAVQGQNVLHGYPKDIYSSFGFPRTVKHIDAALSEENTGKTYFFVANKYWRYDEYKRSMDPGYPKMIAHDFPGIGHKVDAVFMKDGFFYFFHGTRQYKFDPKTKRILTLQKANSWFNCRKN
Procedure: Stock solutions were made up as follows: • Assay Buffer: 100 mM Tris-HCl pH 7.6 containing 100 mM NaCl, 10 mM CaCl2, and 0.05% Brij 35 • Substrate: 0.4 mM McaPLGLDpaAR (from Bachem) (0.437 mg/ml) stock solution in 100% DMSO (stored at −20° C.). Dilute to 8 μM in assay buffer. • Enzyme: Recombinant human 92 kDa gelatinase (MMP-9; APMA (4-aminophenyl • mercuric acetate)—activated if necessary) appropriately diluted in assay buffer.
Test Compounds were prepared initially as 10 mM compound solution in 100% DMSO, diluted to 1 mM in 100% DMSO, then serially diluted 3-fold in 100% DMSO across columns 1-10 of a 96-well microtitre plate Assay concentration range, 100 μM (column 1) to 5.1 nM (column 10)
The assay was performed in a total volume of 100 μl per well in 96-well microtitre plates. Activated enzyme (20 μl) was added to the wells followed by 20 μl of assay buffer. Appropriate concentrations of test compounds dissolved in 10 μl of DMSO were then added followed by 50 μl of McaPLGLDpaAR (8 μM, prepared by dilution of DMSO stock in assay buffer). For each assay ten concentrations of test compound were examined in duplicate. Control wells lack either enzyme or test compound. The reactions were incubated at 37° C. for 2 hours. The fluorescence at 405 nm was measured immediately with an SLT Fluostar fluorometer (SLT Labinstruments GmbH, Grödig, Austria) using 320 nm excitation, without stopping the reaction.
The effect of the test compound was determined from the dose response curve generated by the 10 duplicate concentrations of inhibitor. The IC50 (the concentration of compound required to give a 50% decrease in enzyme activity) was obtained by fitting data to the equation, Y=a+((b−a)/(1+(c/X)^d)). (Y=inhibition achieved for a particular dose; X=the dose in nM; a=minimum y or zero % inhibition; b=maximum y or 100% inhibition; c=is the IC50; d=is the slope). The result was rounded to one significant figure.
• Compounds were tested for inhibitory activity against collagenase (MMP1) in an assay using a coumarin-labelled peptide substrate, (7-methoxycoumarin-4-yl)acetyl-Pro-Leu-Gly-Leu-(3-[2,4-dinitrophenyl]-L-2,3-diaminopropionyl)-Ala-Arg-NH2 (McaPLGLDpaAR) (Knight et al, FEBS Lett. 1992; 263-266). The protocol for this assay was as described for the MMP9 assay above.

## CC(C)C[C@@H](C(=O)N[C@H](c1noc(-c2cccs2)n1)C(C)(C)C)[C@H](O)C(=O)NO [Example 13, 2S-Hydroxy-3R-[1S-(5-thiophen-2-yl-[1,2,4]oxadiazol-3-yl)-2,2-dimethyl-propylcarbamoyl]-5-methyl Hexanohydroxamic Acid]
[1]; Oral route
  ID50 for inhibition of IL2-induced peritoneal recruitment of lymphocytes: 1 mg/kg
[1]; Subcutaneous route
  ID50 for inhibition of IL2-induced peritoneal recruitment of lymphocytes: 0.1 mg/kg
Collagenase (MMP1)
  IC50: 100 to 1000 nM
